Test results reported in the supplement of paper PMC8671470.

Key:
Conditions in all cases: 72 h
HEL [1] = tested on: HEL
Outline: (§1)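 Fifteen myeloid leukaemia cell lines were seeded in RPMI 1640 at a density titrated to the linear growth range. Each line went into 384-well plates with compounds acoustically pre-printed at five tenfold doses from 1 to 10,000 nM, in duplicate, and was incubated for 72 h at 37 °C with 5% CO2. Luminescent ATP viability was normalised to vehicle and to a positive control at 10 µM. The IC50 came from four-parameter log-logistic dose–response fits.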

NOMO-1 [2] = tested on: NOMO-1
Outline: as §1

MV4-11 [3] = tested on: MV4-11
Outline: as §1

ML-2 [4] = tested on: ML-2
Outline: as §1

SHI-1 [5] = tested on: SHI-1
Outline: as §1

LAMA-84 [6] = tested on: LAMA-84
Outline: as §1

K-562 [7] = tested on: K-562
Outline: as §1

KG-1 [8] = tested on: KG-1
Outline: as §1

KCL-22 [9] = tested on: KCL-22
Outline: as §1

KU-812 [10] = tested on: KU-812
Outline: as §1

MOLM-13 [11] = tested on: MOLM-13
Outline: as §1

Mono-Mac-6 [12] = tested on: Mono-Mac-6
Outline: as §1

THP-1 [13] = tested on: THP-1
Outline: as §1

HL-60 [14] = tested on: HL-60
Outline: as §1

BV-173 [15] = tested on: BV-173
Outline: as §1

HEL [16] = assay: cell viability (% survival relative to DMSO control, bortezomib = 0%); higher = less cytotoxic
Outline: (§2)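 Percent survival is reported as the mean of duplicate wells. Cells from 10 AML and 5 CML lines were plated in 384-well plates containing compounds at 1, 10, 100, 1000 or 10000 nM and kept for 72 h at 37 °C in 5% CO2. Readout used CellTiter-Glo luminescence, scaled so that vehicle equals 100% and a 10 µM positive control equals 0%.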

NOMO-1 [17] = assay: as above
Outline: as §2

MV4-11 [18] = assay: as above
Outline: as §2

ML-2 [19] = assay: as above
Outline: as §2

SHI-1 [20] = assay: as above
Outline: as §2

LAMA-84 [21] = assay: as above
Outline: as §2

K-562 [22] = assay: as above
Outline: as §2

KG-1 [23] = assay: as above
Outline: as §2

KCL-22 [24] = assay: as above
Outline: as §2

KU-812 [25] = assay: as above
Outline: as §2

MOLM-13 [26] = assay: as above
Outline: as §2

Mono-Mac-6 [27] = assay: as above
Outline: as §2

THP-1 [28] = assay: as above
Outline: as §2

HL-60 [29] = assay: as above
Outline: as §2

BV-173 [30] = assay: as above
Outline: as §2

O=C(CCl)N(CCCNC(=O)C(F)(F)F)c1ccc([N+](=O)[O-])cc1 [ML175]
Conditions	IC50 (cell viability) [nM]
BV-173 [15]	320
HEL [1]	297
HL-60 [14]	2130
K-562 [7]	2950
KCL-22 [9]	2070
KG-1 [8]	341
KU-812 [10]	2230
LAMA-84 [6]	2540
ML-2 [4]	288
MOLM-13 [11]	276
MV4-11 [3]	309
Mono-Mac-6 [12]	896
NOMO-1 [2]	305
SHI-1 [5]	3410
THP-1 [13]	2770

cell viability [%]
Conditions	1 nM	10 nM	100 nM	1000 nM	10000 nM
BV-173 [30]	122	99.9	101	-0.0318	-0.742
HEL [16]	105	106	96.3	-0.0497	-0.423
HL-60 [29]	104	111	110	83.4	-1.03
K-562 [22]	101	91.9	99.6	95.7	-0.364
KCL-22 [24]	113	118	85	82.5	-0.718
KG-1 [23]	109	109	96.8	6.67	-0.879
KU-812 [25]	99.1	96.8	89.7	81.3	-0.456
LAMA-84 [21]	107	106	90.5	89.9	-0.333
ML-2 [19]	97	102	94.5	0.519	-0.998
MOLM-13 [26]	89.5	115	92.4	0.57	-1.51
MV4-11 [18]	93.6	93	95.6	-0.18	-0.931
Mono-Mac-6 [27]	101	104	98.2	44.6	-1.09
NOMO-1 [17]	96.3	97.8	97.8	0.0839	-0.851
SHI-1 [20]	95	127	85.1	107	-0.834
THP-1 [28]	99.7	102	91.9	94.2	-2.38
